Reference: ChEMBL document CHEMBL1134915, “Acyl dipeptides as reversible caspase inhibitors. Part 2: further optimization” (Bioorg Med Chem Lett, 2002)

Legend:
Caspase-6 [1] = molecular target: T1, Caspase-6 (Homo sapiens, UniProt P55212); assay: Inhibition of Caspase-6
T1 sequence (P55212 whole entry): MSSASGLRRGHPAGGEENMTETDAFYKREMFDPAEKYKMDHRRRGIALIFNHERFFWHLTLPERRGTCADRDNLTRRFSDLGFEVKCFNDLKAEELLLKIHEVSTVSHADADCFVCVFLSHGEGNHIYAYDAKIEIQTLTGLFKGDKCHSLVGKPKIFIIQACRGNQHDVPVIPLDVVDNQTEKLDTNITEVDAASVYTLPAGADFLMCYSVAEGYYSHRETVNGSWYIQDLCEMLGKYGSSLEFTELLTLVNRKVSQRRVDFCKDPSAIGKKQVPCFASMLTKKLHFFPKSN

Caspase-3 [2] = molecular target: T2, Caspase-3 (Homo sapiens, UniProt P42574); assay: Inhibition of Caspase-3
T2 sequence (P42574 whole entry): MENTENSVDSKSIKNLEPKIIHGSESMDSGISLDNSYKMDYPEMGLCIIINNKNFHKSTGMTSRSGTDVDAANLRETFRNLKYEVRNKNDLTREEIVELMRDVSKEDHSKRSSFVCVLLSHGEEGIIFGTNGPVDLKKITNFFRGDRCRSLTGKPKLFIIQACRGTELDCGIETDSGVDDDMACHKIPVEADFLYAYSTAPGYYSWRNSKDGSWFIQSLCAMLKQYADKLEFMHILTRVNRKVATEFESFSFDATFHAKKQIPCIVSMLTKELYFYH

Caspase-8 [3] = molecular target: T3, Caspase-8 (Homo sapiens, UniProt Q14790); assay: Inhibition of Caspase-8 enzyme
T3 sequence (Q14790 217-374 limits assumed): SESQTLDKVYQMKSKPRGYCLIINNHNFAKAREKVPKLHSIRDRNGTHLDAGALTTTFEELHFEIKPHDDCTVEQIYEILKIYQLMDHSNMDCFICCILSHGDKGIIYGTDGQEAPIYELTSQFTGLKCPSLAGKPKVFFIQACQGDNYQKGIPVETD
T3 sequence (Q14790 385-479 limits assumed): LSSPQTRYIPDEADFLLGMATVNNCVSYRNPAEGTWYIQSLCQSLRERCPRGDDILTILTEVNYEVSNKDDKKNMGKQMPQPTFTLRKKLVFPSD

Caspase-7 [4] = molecular target: T4, Caspase-7 (Homo sapiens, UniProt P55210); assay: Inhibition of Caspase-7 enzyme
T4 sequence (P55210 whole entry): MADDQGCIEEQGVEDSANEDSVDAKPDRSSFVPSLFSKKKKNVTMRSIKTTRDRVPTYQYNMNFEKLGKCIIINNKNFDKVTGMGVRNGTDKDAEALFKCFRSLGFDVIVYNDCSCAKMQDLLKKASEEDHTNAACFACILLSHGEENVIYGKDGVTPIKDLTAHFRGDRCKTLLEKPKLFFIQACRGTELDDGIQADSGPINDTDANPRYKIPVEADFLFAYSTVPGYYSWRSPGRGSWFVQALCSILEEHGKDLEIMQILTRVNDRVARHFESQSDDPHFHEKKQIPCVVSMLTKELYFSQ

Caspase-1 [5] = molecular target: T5, Caspase-1 (Homo sapiens, UniProt P29466); assay: Inhibition of Caspase-1 enzyme
T5 sequence (P29466 whole entry): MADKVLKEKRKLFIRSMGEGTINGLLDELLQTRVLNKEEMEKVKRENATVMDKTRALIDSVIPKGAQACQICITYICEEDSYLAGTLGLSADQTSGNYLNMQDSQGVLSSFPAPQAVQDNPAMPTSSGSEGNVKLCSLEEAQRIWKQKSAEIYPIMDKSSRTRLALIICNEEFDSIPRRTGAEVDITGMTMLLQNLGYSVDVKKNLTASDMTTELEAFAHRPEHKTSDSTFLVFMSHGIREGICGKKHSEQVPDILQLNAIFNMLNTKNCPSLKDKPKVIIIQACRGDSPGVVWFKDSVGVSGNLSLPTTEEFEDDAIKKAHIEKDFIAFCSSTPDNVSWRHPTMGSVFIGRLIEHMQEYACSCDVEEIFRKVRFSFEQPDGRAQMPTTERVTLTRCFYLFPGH

Caspase-7 [6] = molecular target: T4, Caspase-7; assay: Inhibitory concentration of compound required against Caspase-7 enzyme compared to acylated dipeptides
Caspase-6 [7] = molecular target: T1, Caspase-6; assay: Inhibitory concentration of compound required against Caspase-6 enzyme compared to acylated dipeptides
Caspase-1 [8] = molecular target: T5, Caspase-1; assay: Inhibitory concentration of compound required against Caspase-1 enzyme compared to acylated dipeptides
Caspase-3 [9] = molecular target: T2, Caspase-3; assay: Inhibitory concentration of compound required against Caspase-3 enzyme compared to acylated dipeptides
Caspase-8 [10] = molecular target: T3, Caspase-8; assay: Inhibitory concentration of compound required against Caspase-8 enzyme compared to acylated dipeptides

SMILES	IC50 (Caspase-6 [1]) [nM]	IC50 (Caspase-3 [2]) [nM]	IC50 (Caspase-8 [3]) [nM]	IC50 (Caspase-7 [4]) [nM]	IC50 (Caspase-1 [5]) [nM]	IC50 (Caspase-7 [6]) [nM]	IC50 (Caspase-6 [7]) [nM]	IC50 (Caspase-1 [8]) [nM]	IC50 (Caspase-3 [9]) [nM]	IC50 (Caspase-8 [10]) [nM]
CC(C)C(NC(=O)COc1cc2ccccc2cc1NS(=O)(=O)C(F)(F)F)C(=O)N[C@H]1CC(=O)OC1O (some centres not stated)	3030	1920	1420	43700	2180	–	–	–	–	–
CC(C)C(NC(=O)COc1c(C(=O)O)ccc2ccccc12)C(=O)N[C@H]1CC(=O)OC1O (some centres not stated)	1430	54	48	1650	385	–	–	–	–	–
CC(C)CC(NC(=O)CNc1cccc(Oc2ccccc2)c1)C(=O)N[C@H]1CC(=O)OC1O (some centres not stated)	308	230	670	2670	330	–	–	–	–	–
CC(C)CC(NC(=O)[C@H](CCC(=O)O)Oc1cccc2ccccc12)C(=O)N[C@H]1CC(=O)OC1O (some centres not stated)	3.5	3.8	31	130	–	–	–	–	–	–
CC(C)CC(NC(=O)CNCC(Cc1ccccc1)c1ccccc1)C(=O)N[C@H]1CC(=O)OC1O (some centres not stated)	589	320	990	2920	790	–	–	–	–	–
CC(C)CC(NC(=O)CNc1cccc2ccccc12)C(=O)N[C@H]1CC(=O)OC1O (some centres not stated)	37	13	7.6	1320	33	–	–	–	–	–
CC(C)C(NC(=O)CNc1cccc2ccccc12)C(=O)N[C@H]1CC(=O)OC1O (some centres not stated)	7000	1550	450	6140	15	–	–	–	–	–
CC(C)C(NC(=O)COc1cccc2ccccc12)C(=O)N[C@H]1CC(=O)OC1O (some centres not stated)	> 10000	355	1200	2100	336	–	–	–	–	–
CC(C)C(NC(=O)COc1cc2ccccc2cc1C(=O)O)C(=O)N[C@H]1CC(=O)OC1O (some centres not stated)	1900	731	200	17000	1890	–	–	–	–	–
CC(=O)N[C@@H](CC(=O)O)C(=O)N[C@@H](CCC(=O)O)C(=O)N[C@H](C(=O)N[C@H]1CC(=O)OC1O)C(C)C (some centres not stated)	–	–	–	–	–	10	10	50	3.5	80

Results, then the compound that gave them:

IC50 (Caspase-6 [1]) [nM]	IC50 (Caspase-3 [2]) [nM]	IC50 (Caspase-8 [3]) [nM]	IC50 (Caspase-7 [4]) [nM]	IC50 (Caspase-1 [5]) [nM]	IC50 (Caspase-7 [6]) [nM]	IC50 (Caspase-6 [7]) [nM]	IC50 (Caspase-1 [8]) [nM]	IC50 (Caspase-3 [9]) [nM]	IC50 (Caspase-8 [10]) [nM]	SMILES
1010	207	615	11000	127	–	–	–	–	–	CC(C)C(NC(=O)COc1cccc2c(NS(=O)(=O)C(F)(F)F)cccc12)C(=O)N[C@H]1CC(=O)OC1O (some centres not stated)
15	21	12	587	–	–	–	–	–	–	CC(C)CC(NC(=O)[C@@H](CCC(=O)O)Oc1cccc2ccccc12)C(=O)N[C@H]1CC(=O)OC1O (some centres not stated)
310	512	17	7240	–	–	–	–	–	–	CC(C)C[C@H](NC(=O)C(C)Nc1cccc2ccccc12)C(=O)N[C@H]1CC(=O)OC1O (some centres not stated)
4600	4400	19600	37000	250	–	–	–	–	–	CC(C)C(NC(=O)CCOc1cccc2ccccc12)C(=O)N[C@H]1CC(=O)OC1O (some centres not stated)
3610	401	733	10900	2960	–	–	–	–	–	CC(C)C(NC(=O)COc1ccc2ccccc2c1C(=O)O)C(=O)N[C@H]1CC(=O)OC1O (some centres not stated)
